According to patent publication US10639345B2, “Compositions for preserving photoreceptor cells, retinal pigment epithelial cells, or visual function” (Massachusetts Eye and Ear Infirmary, priority 2010, dated 2020):
Where a SMILES comes first, the peptide text is derived from it. The star is where a group is joined. Cbz = O=C(OCc1ccccc1)*; CH2F = FC*

Key:
primary RPE cells = assay: Viability of primary RPE cells treated with poly I:C (Cell Counting Kit-8); assay type: cell-based, mice; conditions: WT primary RPE cells, 5 μg/ml poly I:C for 48 hours
Description: (§1) As described in Example 11, primary RPE cells were extracted from the retina of mice and cultured in the presence of 5 μg/ml of poly I:C for 48 hours or with PBS. Cell viability was measured using Cell Counting Kit-8 (Dojindo Laboratories, Kumamoto, Japan). This assay is based on the cleavage of 2-(2-methoxy-4-nitrophenyl)-3-(4-nitrophenyl)-5-(2,4-disulfophenyl)-2H-tetrazolium, monosodium salt (WST-8) by the mitochondrial dehydrogenase enzyme to produce a formazan dye. After incubation with WST-8 for two hours at 37° C., absorbance was measured at 450 nm to determine cell viability.

photoreceptors [1] = assay: In vivo PI labeling of photoreceptors after retinal detachment in RIP-3−/− retinas; parameters: species or system RIP-3−/− mice; conditions: day 3 after retinal detachment
Description: In vivo propidium iodide (PI) staining was performed by injecting 5 μl of PI (50 μg/ml) into the subretinal space three days after retinal detachment. After two hours, the eyes were enucleated and 10 μm thick cryosections were cut, air-dried, and fixed in 100% ethanol. DAPI was used to counterstain the nuclei. The center of the detached retina was photographed by fluorescence microscope, and the number of PI-positive cells in ONL was analyzed by ImageJ software.
FIG. 8C-D show PI staining (FIG. 8C) and quantification of PI-positive photoreceptors (FIG. 8D) on day 3 after retinal detachment in retina treated with vehicle, Z-VAD or Nec-1 (a Nec-1 of Formula I-C) and Z-VAD in RIP-3−/− retina (n=5-6; C and D). *, P<0.05; **, P<0.01. Scale bar, 100 μm.

photoreceptors [2] = assay: Poly I:C-induced dry AMD model, TUNEL-positive cells in ONL; assay type: in vivo, mice; conditions: compared with vehicle
Source text: In this example, the mechanism of photoreceptor cell death in dry AMD was investigated using a polyinosinic:polycytidylic acid (Poly I:C)-induced dry AMD model (Yang et al. (2009) NEJM 359(14):1456-63). Poly I:C is a synthetic double-stranded RNA (dsRNA) analog that activates toll-like receptor 3 (TLR3) signaling (FIG. 20A). Furthermore, dsRNA are known to exist in the drusen of human AMD patients. As depicted in FIG. 20A, activation of the TLR3 signaling results in activation of RIP-1 kinase pathway. […] In the experiments described herein, 2-3 μl of Poly I:C (1 mg/ml) was injected into the subretinal space of the eye (e.g., approximately 2-3 μg of Poly I:C was administered to the eye) to induce AMD.
The thickness of the ONL was determined by the National Institutes of Health ImageJ software. […] Specifically, the number of TUNEL-positive cells in the RIP-3−/− mice treated with poly I:C was at least three fold less than control mice consistent with RIP-3 playing a role in mediating programmed necrosis in AMD (FIG. 22B).
To determine the effect of Nec-1 and a pan-caspase inhibitor in the treatment of AMD, TUNEL assay was performed to assess photoreceptor cell death in the poly I:C induced AMD model. […] The thickness of ONL was also measured.

photoreceptors [3] = assay: Normalized ONL thickness ratio after retinal detachment in RIP-3−/− mice
Description: TUNEL assays were used to measure the amount of apoptotic and necrotic cell death (Grasl-Kraupp et al., HEPTALOGY (1995) 21(5):1465-8). TUNEL and quantification of TUNEL positive cells in ONL were performed as described above by using the ApopTag Fluorescein In Situ Apoptosis Detection Kit (Millipore, Billerica, Mass.). The ratio of the ONL thickness to the thickness of neuroretina in the central area of the detached retina was determined by National Institutes of Health ImageJ software and standardized by that in the attached retina. The data are expressed as normalized ONL thickness ratio [(ONL/neuroretina thickness in detached retina)/(ONL/neuroretina thickness in attached retina)].

RIP-3−/− RPE cells = assay: Viability of RIP-3−/− RPE cells treated with poly I:C (Cell Counting Kit-8); assay type: cell-based, mice
Description: as §1
Without poly I:C treatment, the viability of RPE cells was similar in WT and RIP-3−/− cells.

[4] = system: CD11b-positive macrophage/microglia; assay: CD11b-positive cell infiltration after retinal detachment in RIP-3−/− eyes; assay type: in vivo, RIP-3−/− mice
Description: Immunofluorescence was performed as previously reported (Hisatomi et al. (2008) J CLIN INVEST 118:2025-2038. The enucleated eyes were frozen in OCT compound (Sakura Finetechnical Co., Tokyo, Japan). Five μm-thick sections were cut, air dried and fixed in cold acetone for 10 minutes. Rat anti-CD11b (1:50; BD Biosciences, San Diego, Calif.) was used as the primary antibody and incubated at 4° C. overnight. A nonimmune serum was used as a negative control. Alexa Fluor 594-conjugated goat anti-rat IgG (Invitrogen, Carlsbad, Calif.) was used as the secondary antibody and incubated at room temperature for one hour. The specimens were imaged by confocal microscopy using the Leica HCX APOL40× lens.
Since the release of intracellular content in necrosis results in secondary inflammation, changes in the inflammatory response after retinal detachment were investigated by immunohistochemistry and immunofluorescence with an antibody against CD11b. FIG. 11A-B show IHC for CD11b (FIG. 11A) and quantification of CD11b-positive cells in control retina without retinal detachment and in retina treated with vehicle, Z-VAD or Z-VAD+Nec-1 (n=6 each) (FIG. 11B) at three days after retinal detachment. […]
FIG. 11C-D show immunofluorescence for CD11b (FIG. 11C) and quantification of CD11b-positive macrophage/microglia (FIG. 11D) in WT and RIP-3−/− retina after retinal detachment.

photoreceptors [5] = assay: Normalized ONL thickness ratio after experimental retinal detachment; assay type: in vivo, rat; conditions: subretinal Z-VAD 300 μM and/or Nec-1 400 μM
Description: Photoreceptor death was also assessed by TUNEL analysis at three days after retinal detachment in retina treated with either vehicle, Nec-1, Z-VAD or Nec-1+Z-VAD. […] Nine sections for each eye specimen were randomly selected, and the central area of detached retina and the mid-peripheral region of attached retina were photographed. The ONL thickness ratio was measured at ten points in each section by masked observers. […] (GCL: ganglion cell layer, INL: inner nuclear layer. *, P<0.05. Scale bar, 100 μm). […]
TNF-α protein contents in rat retina were determined using ELISA Kit for rat TNF-α (Invitrogen, Carlsbad, Calif.). Goat anti-mouse/rat TNF-α blocking antibody was purchased from R&D Systems (Minneapolis, Minn.). The rat eyes were subretinally injected with 1% of sodium hyaluronate containing 0.1 mg/ml of anti-TNF-α antibody or control antibody.

[6] = system: carbonyl adducts of proteins; assay: Protein carbonyl ELISA (oxidative retinal damage) after retinal detachment; assay type: in vivo; conditions: day three after retinal detachment, wild type
Description: Recent studies reported that RIP kinases regulate downstream ROS production during programmed necrosis (Cho Y S et al. (2009) CELL 137:1112-1123; Zhang D W et al. (2009) SCIENCE 325:332-336; Kim et al. (2007) MOL CELL 26:675-687). ELISA for carbonyl adducts of proteins was used to examine oxidative retinal damage following retinal detachment. Specifically, the amounts of protein carbonyls were determined by using OxiSelect™ Protein Carbonyl ELISA Kit (Cell Biolabs, San Diego, Calif.).

photoreceptors [7] = assay: TUNEL-positive cells after retinal detachment in RIP-3−/− mice; assay type: in vivo; conditions: three days after retinal detachment
Description: The role of RIP-3 in RIP-mediated programmed necrosis in photoreceptor loss after retinal detachment was investigated in RIP-3 knockout (RIP-3−/−) mice. TUNEL assays were used to measure the amount of apoptotic and necrotic cell death (Grasl-Kraupp et al., HEPTALOGY (1995) 21(5):1465-8). TUNEL and quantification of TUNEL positive cells in ONL were performed as described above by using the ApopTag Fluorescein In Situ Apoptosis Detection Kit (Millipore, Billerica, Mass.).

COC(=O)CC(NC(=O)C(C)NC(=O)C(NC(=O)OCc1ccccc1)C(C)C)C(=O)CF (stereo not drawn) [Z-VAD, Benzyloxycarbonyl-Val-Ala-Asp(OMe)-fluoromethylketone] (Cbz-Val-Ala-Asp(OMe)-CH2F; configuration not given here)
viability of RPE cells (primary RPE cells): did not protect WT RPE cells
number of photoreceptors with disrupted plasma membrane (in vivo PI-labeling) (photoreceptors [1]): not increased
number of TUNEL-positive cells in ONL (photoreceptors [2]): slight effect
ONL thickness ratio (photoreceptors [3]; day 3 and 5 after retinal detachment, RIP-3−/− retinas): augmented
normalized ONL thickness ratio (photoreceptors [3]; five days after retinal detachment, RIP-3−/− mice): 0.841±0.042
viability of RPE cells (RIP-3−/− RPE cells): protected from cell death
infiltration of CD11-b positive cells in the retina and subretinal space [4]: even less infiltration
normalized ONL thickness ratio (photoreceptors [5]; five days after retinal detachment): 0.54±0.10
normalized ONL thickness ratio (photoreceptors [5]; three days after retinal detachment): 0.72±0.08
carbonyl contents per mg protein [6]: significant increase of carbonyl contents
number of TUNEL-positive cells (photoreceptors [7]): 407.7±188.9 cells/mm^2
